Eight compounds from patent US20260159499A1, “COMPOUND AS FAK INHIBITOR AND USE THEREOF” (WIGEN BIOMEDICINE TECHNOLOGY (SHANGHAI) CO., LTD., priority 2021, published 2026) can be followed below.

Some results are limits rather than exact numbers.

The target in one series is FAK recombinant protein (Homo sapiens, UniProt Q05397). Put plainly: Inhibitory activity against FAK enzyme. The class given is biochemical. The following applies: TK substrate, ATP. The procedure, abridged: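 Compound preincubated with FAK recombinant protein 10 min at room temperature, then biotin-labeled TK substrate and ATP added and incubated 1 h at room temperature.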

Series [1] deals with PC3 cells. Put plainly: Inhibition of PC3 cell adherence. The class given is cell-based. The settings on record: Homo sapiens, PC-3; PC3, 4 h treatment; read-out: Inhibitory activity against PC-3 cell adherence IC50. On the procedure: PC3 cells were added at 8000 cells/well. 4 h after the cells were treated with the compound, the number of adherent cells was counted. The inhibition percentages and IC50 of the compounds were calculated compared to the DMSO group.

The test system of series [2] is PC3 cells. Briefly: PC3 cell proliferation, 3D activity detection. The format is cell-based, human. The following applies: Homo sapiens, PC-3, 336 h, PC3, 3D culture, 14 days, read-out: 3D IC50 against PC3 cells. As to the method:
3D activity detection: PC3 cells were seeded in a 96-well plate at 1200 cells/well, and 3D culture was performed. 14 days after the compound serially diluted was added, the growth of the cells was determined. The inhibition percentage and IC50 of the compound were calculated compared to the DMSO control group.

Series [3] in a line: In vivo pharmacokinetic experiment in mice. The arrangement: species or system CD-1 female mice. The following applies: CD-1 mice. On the procedure: On the day of the experiment, animals in the intravenous group were administered the corresponding compound by single injection via the tail vein at an administration volume of 10 mL/kg, and animals in the oral group were administered the corresponding compound by single intragastric injection at an administration volume of 10 mL/kg. The animals were weighed before administration, and the administration volume was calculated according to the body weight. […] About 200 μL of whole blood was collected through the orbital venous plexus at each time point and used to prepare plasma for concentration determination by high-performance liquid chromatography-tandem mass spectrometry (LC-MS/MS). The plasma concentrations were processed using a non-compartmental model of Winnolin pharmacokinetic software, and the pharmacokinetic parameters were calculated using a linear-log trapezoidal method.

For series [4], the system named is Human pancreatic cancer Mia PaCa-2 cells. Put plainly: In vivo efficacy test in MiaPaCa-2 model. The following applies: 25 mg/kg, PO, QD (21 days).
Description: After being subcultured, the cells were collected when they reached the desired amount. 1×10^7 Mia PaCa-2 cells were injected into the left dorsal side of each nude mouse, and the animals were randomly grouped for administration after tumors grew to 100-200 mm^3. The mice in the solvent control group were intragastrically administered 0.5% MC-Tween-80 twice a day; the mice in the compound groups were intragastrically administered 0.5% MC-Tween-80 suspension once a day. On Tuesday and Thursday each week, tumor volumes and body weight of the mice were measured, and the nude mice were sacrificed on day 21 after the administration.
(§1) The toxicity of the compounds was evaluated according to the body weight of the mice.
Series [5] relates to Human prostatic cancer PC3 cells. Briefly: In vivo efficacy test in PC-3 model. The following applies: 25 mg/kg, PO, QD (21 days). The arrangement: species or system BALB/c nude mice.
Description: Female BALB/c nude mice (aged 6 weeks, 18-22 g) were provided by Vital River Laboratory Animal Technology Co., Ltd. (China) and used one week after quarantine and acclimation. All animals were kept in a room at 23±2° C. with a relative humidity of 50±5%, artificial lighting was provided from 08:00 to 20:00 every day, and the air was exchanged 13-18 times per hour.
After being subcultured, the cells were collected when they reached the desired amount. 1×10^7 PC3 cells were injected into the left dorsal side of each nude mouse, and the animals were randomly grouped for administration after tumors grew to 100-200 mm^3. The mice in the solvent control group were intragastrically administered 0.5% MC-Tween-80 twice a day; the mice in the compound groups were intragastrically administered 0.5% MC-Tween-80 suspension once a day. On Tuesday and Thursday each week, tumor volumes and body weight of the mice were measured, and the nude mice were sacrificed on day 21 after the administration.
as §1
Series [6] concerns Mouse colon cancer MC38 cells. Put plainly: In vivo efficacy experiment in MC38 model. The following applies: single drug 50 mg/kg, PO, QD (21 days). The arrangement: species or system BALB/c mice. On the procedure:
The BALB/c mice were subcutaneously injected with 1×10^6 MC38 cells on the right side to form tumors. […] The administration was then started. Tumor volumes were measured with a caliper on day 3, day 7, day 10, day 14, day 17 and day 21 after the administration.

In series [7] the test system is PC3 cells. Put plainly: PC3 cell proliferation, 2D activity detection. The format is cell-based, human. The settings on record: Homo sapiens, PC-3, PC3, 2D, 72 h, read-out: 2D IC50 against PC3 cells. On the procedure:
2D activity detection: 1200 PC3 cells were seeded in a 96-well plate. After overnight adherence culture, the compound serially diluted was added. 72 h after addition, Cell Titer-Lumi (Beyotime C0068XL) was added to measure the ATP content in the cells. The growth of the cells was evaluated, and IC50 of the compounds against cell growth was calculated.

Setting [8] is: female, mouse, plasma, injection (IV) 1 mg/kg (footnote).
The mark [9] stands for this setting: female, mouse, plasma, oral administration 10 mg/kg.

Sequence of FAK recombinant protein (Q05397 whole entry, species assumed): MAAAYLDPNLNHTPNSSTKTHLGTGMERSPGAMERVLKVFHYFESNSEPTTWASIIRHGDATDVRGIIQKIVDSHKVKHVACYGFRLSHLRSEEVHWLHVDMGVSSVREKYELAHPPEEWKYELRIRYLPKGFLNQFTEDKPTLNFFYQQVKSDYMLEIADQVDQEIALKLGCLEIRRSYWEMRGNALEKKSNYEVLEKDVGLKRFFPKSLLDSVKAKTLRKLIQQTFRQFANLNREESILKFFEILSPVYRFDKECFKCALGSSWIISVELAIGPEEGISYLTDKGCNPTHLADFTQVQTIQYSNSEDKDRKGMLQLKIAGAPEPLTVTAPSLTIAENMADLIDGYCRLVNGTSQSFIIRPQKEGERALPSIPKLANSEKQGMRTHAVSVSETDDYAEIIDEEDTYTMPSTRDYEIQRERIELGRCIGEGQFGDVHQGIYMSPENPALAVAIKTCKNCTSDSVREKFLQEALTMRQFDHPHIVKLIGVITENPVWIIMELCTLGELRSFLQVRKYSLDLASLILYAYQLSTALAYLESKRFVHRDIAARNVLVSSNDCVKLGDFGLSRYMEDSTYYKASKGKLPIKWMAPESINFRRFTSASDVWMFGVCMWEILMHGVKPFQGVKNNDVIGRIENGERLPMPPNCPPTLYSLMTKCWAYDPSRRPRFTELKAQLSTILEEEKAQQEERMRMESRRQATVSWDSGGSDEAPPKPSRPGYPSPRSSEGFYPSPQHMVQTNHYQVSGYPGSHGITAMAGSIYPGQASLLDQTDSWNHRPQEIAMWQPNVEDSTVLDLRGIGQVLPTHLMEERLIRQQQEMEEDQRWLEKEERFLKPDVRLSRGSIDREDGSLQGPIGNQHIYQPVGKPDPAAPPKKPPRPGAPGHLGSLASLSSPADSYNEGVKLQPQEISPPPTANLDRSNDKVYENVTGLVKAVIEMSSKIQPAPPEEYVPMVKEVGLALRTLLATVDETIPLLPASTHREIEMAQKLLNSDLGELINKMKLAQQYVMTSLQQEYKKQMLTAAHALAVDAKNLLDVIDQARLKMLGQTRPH

On to `COc1cc(N2CC3(CCN(C)CC3)C2)ccc1Nc1ncc(C(F)(F)F)c(Oc2cccc3c2C(=O)N(C)C3)n1` [Compound 90, 7-((2-((2-methoxy-4-(7-methyl-2,7-diazaspiro[3.5]non-2-yl)phenyl)amino)-5-(trifluoromethyl)pyrimidin-4-yl)oxy)-2-methylisoindolin-1-one], for which the IC50 was < 10 nM on FAK recombinant protein, 1.86 nM with PC3 cells [1], 0.8 nM in the series on PC3 cells [2] (numeric (mean where marked *)) and > 10000 nM in the series with PC3 cells [7] (numeric). For the same compound, the “oral bioavailability and oral absorption properties (in words)” value in series [3] (oral 10 mg/kg) is “good oral bioavailability and good oral absorption properties”. Moreover, the AUC(0-t) in series [3] (setting [8]) was 812 ng·h/mL; in series [3] (setting [9]), 7460 ng·h/mL. This compound registered a clearance in series [3] (setting [8]) of 20.5 mL/min/kg. Also, the half-life in series [3] (setting [8]) was 185 min; in series [3] (setting [9]), 169 min. The Vd in series [3] (female, mouse, plasma, injection (IV) 1 mg/kg (footnote), read-out: Vdss) is 5.34 L/kg. The peak level in series [3] (setting [9]) (Cmax) was 635 ng/mL. The Tmax in series [3] (setting [9]) is 4 h. Also, the bioavailability in series [3] (female, mouse, plasma, oral administration 10 mg/kg vs injection) was 92%. Further, the “Change in body weight” value is reported as “+3.67%” in series [4], −0.5% in series [5] and “+13.54%” in series [6]. Besides, the “TGI (%)” value in series [4] is recorded as 83.72%; in series [5], 81.65%; in series [6], 59.02%.

Take `COc1cc(N2CC3(CCN(C)CC3)C2)ccc1Nc1ncc(C(F)(F)F)c(Oc2cccc3c2C(=O)N(C)C3C)n1` (stereo not drawn) [Compound 100]: the IC50 was < 10 nM on FAK recombinant protein, 1.33 nM in the series with PC3 cells [1], 2.22 nM with PC3 cells [2] (numeric (mean where marked *)) and > 2000 nM in the series on PC3 cells [7] (class symbol).

`COc1cc(N2CC3(CCN(C)CC3)C2)ccc1Nc1ncc(C(F)(F)F)c(Oc2cccc3c2C(=O)N(C)C3(C)C)n1` [Compound 101]: the IC50 on FAK recombinant protein is < 10 nM; in the series with PC3 cells [1], 2.26 nM; in the series with PC3 cells [2] (numeric (mean where marked *)) it was 4.86 nM; in the series with PC3 cells [7] (class symbol), > 2000 nM.

`COc1cc(N2CC3(CCNCC3)C2)ccc1Nc1ncc(C(F)(F)F)c(Oc2cccc3c2C(=O)N(C)C3)n1` [Compound 102]: the concentration for half-maximal inhibition (IC50) on FAK recombinant protein is < 10 nM; with PC3 cells [1], 3.01 nM; in the series on PC3 cells [2] (class symbol) it was < 5 nM; in the series with PC3 cells [7] (class symbol) it was > 2000 nM.

For `COc1cc(N2CC3(CCN(C)CC3)C2)ccc1Nc1ncc(Cl)c(Oc2cccc3c2C(=O)N(C)C3)n1` [Compound 111], the IC50 on FAK recombinant protein is < 10 nM; in the series on PC3 cells [1], 1.62 nM; in the series with PC3 cells [2] (numeric (mean where marked *)), 1.78 nM; in the series with PC3 cells [7] (class symbol), > 2000 nM. Moreover, the “Change in body weight” value in series [4] is reported as “+6.08%”; in series [5], −1.4%; in series [6] it was “+21.07%”. Also, the entries for the “TGI (%)” value in series [4], in series [5] and in series [6] were 82.32%, 87.4% and 47.67%, respectively.

In the case of `COc1cc(N2CC3(CCN(C)CC3)C2)ccc1Nc1ncc(Br)c(Oc2cccc3c2C(=O)N(C)C3)n1` [Compound 112], the IC50 at FAK recombinant protein is < 10 nM; in the series on PC3 cells [1] it was 0.93 nM; in the series on PC3 cells [2] (numeric (mean where marked *)), 0.66 nM; with PC3 cells [7] (class symbol), > 2000 nM.

In the case of `COc1cc(N2CC3(CCN(C)CC3)C2)ccc1Nc1ncc(C#N)c(Oc2cccc3c2C(=O)N(C)C3)n1` [Compound 113], the IC50 is < 10 nM on FAK recombinant protein, 3.56 nM in the series on PC3 cells [1], 1.58 nM in the series with PC3 cells [2] (numeric (mean where marked *)) and > 2000 nM in the series on PC3 cells [7] (class symbol).

Regarding `COc1cc(N2CC3(CCN(C)CC3)C2)ccc1Nc1ncc([N+](=O)[O-])c(Oc2cccc3c2C(=O)N(C)C3)n1` [Compound 114], the IC50 at FAK recombinant protein is < 10 nM; in the series on PC3 cells [1], 2.63 nM; in the series on PC3 cells [2] (class symbol), < 5 nM; in the series with PC3 cells [7] (class symbol), > 2000 nM.
